Laboratory results published in patent US20260217647A1, “CANCER CELL GROWTH INHIBITING COMPOSITION AND PROCESSED FOOD” (HAGIHARA FARM PRODUCTION INSTITUTE CO., LTD., priority 2023, published 2026).

Test system: Jurkat cells
Test: Growth-inhibiting activity on human leukemia T cell line Jurkat cells (viable cell counting reagent SF, 72 h)
Type: cell-based
Details: 72 h incubation, cell viability by absorbance A450-A630
Protocol: The cancer cell growth-inhibiting activity of each of the above samples was evaluated using the human leukemia T cell line, Jurkat.
A suspension of Jurkat cells was prepared at 2×10^5 cells/mL, and 50 μL of the suspension was seeded into each well of a 96-well plate. The evaluation sample was dissolved in DMSO and subsequently diluted 500 fold with culture medium. Immediately after dilution, 50 μL of the resulting solution was added to each well to initiate treatment. After incubation for 72 h, 10 μL of the viable cell counting reagent SF was added to each well. Following incubation for 2 to 3 hours to allow color development, absorbance at 450 nm and 630 nm was measured using a microplate reader. Cell viability was then calculated using the following formula (F1).
As, Ab, and Ac are defined as follows. • As: absorbance of evaluation well • Ab: absorbance of negative control well • Ac: absorbance of control well
The respective “absorbances” in the above formula were calculated by subtracting the absorbance at 630 nm (A630) from the absorbance at 450 nm (A450) and was represented by “A450-A630”. Furthermore, to calculate IC50, a linear approximation was performed on a graph showing the logarithmic values of the two concentrations that most narrowly bracketed a cell viability of 50%.

Q: With `CSC/C=C(\C)CCC[C@H](C)CCC[C@H](C)CCCC(C)C` [PT37] as the compound, how does the IC50 read?
A: > 100 µM

Q: And the IC50 (Homo sapiens, Jurkat, 72 h)?
A: ≥ 100 µM
